Where “and” joins values, the source holds several entries; their conditions need not be identical. Identical values can stand only once. Like-named read-outs stand apart in the source and are kept apart here.
Experiments:
[1] = tested on: HBL cells; assay: MTT viability assay; type: cell-based, human; settings: 24 h; for cytotoxicity (MTT): 25 or 50 μM
Procedure: (§1) The effect of the inhibitors on cell viability was evaluated by phase contrast microscopy and by means of the 3-(4,5-dimethyl-2-thiazolyl)-2,5-diphenyl-2H-tetrazolium bromide (MTT) assay. HBL cells were treated with the compounds (25 or 50 μM) for 24 h. At the end of the incubation period, phase contrast images were taken and the MTT assay was performed to test the cytotoxicity of each compound.
(§2) Figure 4 Effect of caffeic acid derivatives on the viability of HBL cells. Cells were incubated for 24 h with the inhibitors at 25 or 50 µM. (a) Phase contrast microscopy images. Representative images are shown (n = 8) Bar size: 50 μm. (b) MTT viability assay. Cells were grown in 96-well plates to ~80% confluence in the presence or absence of the indicated compounds. After 24 h, MTT was added (1 mg/mL final concentration) and maintained in the culture media for 4 h. Cells were PBS-washed twice and solubilized in DMSO. Absorbance at 562 nm was measured and represented as a percentage of the control value. The mean ± SEM of 8 independent experiments is shown. **** p < 0.0001.
Cell viability was measured by the MTT assay. HBL cells were seeded into the wells of a 96-wells plate at a density of 10,000 cells in 200 μL cell culture media. The seeded cells were incubated for 18 h at 37 °C, then treated with the compounds (25 or 50 μM) for 24 h or left untreated. At the end of the incubation period, images were taken and the MTT assay was performed to test the cytotoxicity of the different caffeic acid derivatives.

[2] = tested on: mushroom tyrosinase; set-up: method as in PMID 31105178; settings: cited from earlier work
[3] = tested on: HBL cells; assay: Phase contrast microscopy of cell morphology; type: cell-based, human; settings: 50 μM, 24 h
Procedure: as §1, §2
Cell viability was measured by the MTT assay. HBL cells were seeded into the wells of a 96-wells plate at a density of 10,000 cells in 200 μL cell culture media. The seeded cells were incubated for 18 h at 37 °C, then treated with the compounds (25 or 50 μM) for 24 h or left untreated. […]

[4] = tested on: mushroom tyrosinase; assay: Consumption of inhibitor by mushroom tyrosinase (substrate test, HPLC); type: biochemical; settings: 100 μM, 10 min
Procedure: Some tyrosinase inhibitors are also substrates of the enzyme and this is a critical issue because their oxidation can lead to the formation of highly reactive, cytotoxic o-quinones. To rule out this possibility, either LCAME or CAME at 100 μM were exposed to mushroom tyrosinase, in the absence of L-DOPA, and after 10 min, the reaction mixtures were analyzed by HPLC. […] HPLC analyses for determination of the consumption of CAME and LCAME in the presence of mushroom tyrosinase were performed on a Agilent 1100 binary pump instrument equipped with a UV-visible detector using an octadecylsilane-coated column, 250 mm × 4.6 mm, 5 μm particle size (Phenomenex Sphereclone ODS, Bologna, Italy) at 0.7 mL/min, using the following gradient: 0.1% formic acid (eluant a)/ methanol (eluant b): 40% b, 0–10 min; from 40 to 80% b, 47.5–52.5 min; from 80 to 40% b, 52.5–57.5 min. Detection wavelength was set at 280 nm. Stock methanolic solutions of LCAME or CAME, ranging in concentration from 0.02 to 20 mM concentration were prepared dissolving a proper amount of the compound of interest in methanol. 100 μL of these solutions were added to 2 mL of 50 mM phosphate buffer at pH 6.8 (final concentrations range: 0.001–1 mM), in the presence or in the absence of 20 U/mL mushroom tyrosinase. After 10 min incubation at room temperature, 20 μL of a 100 mM solution of L-DOPA or L-tyrosine in 0.6 M HCl, were added (final concentration: 1 mM). Spectrophotometric analysis was performed by measuring the absorbance at 475 nm for 10 min at 2 min intervals. In control experiments, the reaction was run in the absence of LCAME. When required, the experiment was performed as above but adding L-DOP A soon after the addition of LCAME ([…]). In separate experiments, the assay was run as above with LCAME or CAME at 100 μM, in the presence or absence of L-DOPA, and after 10 min the mixture was analyzed by HPLC.

[5] = molecular target: mushroom tyrosinase; assay: Mushroom tyrosinase TH activity inhibition (dopachrome formation at 475 nm, L-tyrosine substrate); type: biochemical; settings: 10 min pre-incubation, L-tyrosine 1 mM, tyrosinase 20 U/mL, pH 6.8
Procedure: The inhibition properties of LCAME were preliminarily investigated on mushroom tyrosinase by spectrophotometric monitoring of dopachrome formation, a method which is routinely used for evaluation of the activity of potential tyrosinase inhibitors. L-DOPA was used as the substrate to test DO activity while L-tyrosine was used to test TH activity. LCAME was incubated in 50 mM phosphate buffer in the presence of mushroom tyrosinase (20 U/mL) at room temperature. After 10 min, L-DOPA or L-tyrosine (1 mM final concentration) were added and the absorbance at 475 nm was measured at different times over 10 min. For comparative purposes the effects of CAME were evaluated as well. Stock methanolic solutions of LCAME or CAME, ranging in concentration from 0.02 to 20 mM concentration were prepared dissolving a proper amount of the compound of interest in methanol. 100 μL of these solutions were added to 2 mL of 50 mM phosphate buffer at pH 6.8 (final concentrations range: 0.001–1 mM), in the presence or in the absence of 20 U/mL mushroom tyrosinase. […] Spectrophotometric analysis was performed by measuring the absorbance at 475 nm for 10 min at 2 min intervals. […] In separate experiments, the assay was run as above with LCAME or CAME at 100 μM, in the presence or absence of L-DOPA, and after 10 min the mixture was analyzed by HPLC.

[6] = tested on: tyrosinase; assay: Tyrosinase expression by Western blot (αPEP7), with or without NDP-MSH; type: cell-based, human
Procedure: Control HBL cells or cells grown in the presence of CAME (25 µM) or LCAME (25 or 50 µM) were stimulated for 48 h with a potent analogue of αMSH ([Nle^4,D-Phe^7]-α-MSH (NDP-MSH), 10^−7 M). Use of the 50 μM concentration of CAME was avoided since this concentration was somewhat cytotoxic as shown above. Expression of tyrosinase was then evaluated by Western blot using a specific antibody directed against tyrosinase (αPEP7). […] However, other mechanisms such as interference with activation and/or functional coupling of the melanocortin 1 receptor responsible for αMSH actions cannot be ruled out and a complete study of these possibilities is beyond the scope of this work. Accordingly, interference of LCAME with MITF expression or activity remains speculative at this stage. In any case, this preliminary observation deserves confirmation using cultured normal human melanocytes and further mechanistic analysis, as it may further support the potential use of LCAME as a skin depigmenting agent. Indeed, LCAME may act at two different levels, on one hand by inhibiting preexisting tyrosinase by a competitive mechanism, and on the other hand by interfering with αMSH-dependent induction of tyrosinase expression.
Figure 5 Effect on tyrosinase expression of CAME (25 µM) and LCAME (25 and 50 µM). HBL melanoma cells were incubated with or without the indicated compounds and stimulated with NDP-MSH (10^−7 M). After 48 h of treatment, tyrosinase levels were compared by Western blotting, performed as described in Materials and Methods. […] For each experimental condition, the fold-increase of tyrosinase abundance upon NDP-MSH treatment relative to the corresponding control was determined by densitometric analysis (ImageJ software) and is shown below the figure.
After protein separation by SDS-PAGE, they were transferred from the gel to the membrane and immunochemical detection with anti-PEP7 was performed as previously described. Briefly, the filters were blocked for 1 h in 2% bovine serum albumin in 1% Tween 20 PBS and incubated overnight at 4 °C with primary antibodies (1:4000 dilution). The filters were washed and further incubated with peroxidase-labeled mouse anti-rabbit IgG (1:5000 dilution). Staining and detection were done with ECL Plus Western Blotting Detection System chemiluminescent substrate (Thermo Fisher Scientific, Waltham, MA, USA). Images were acquired in a Fusion Solo.6S system (Vilber-Lourmat, Marne La Vallée, France). Signal intensities were estimated with ImageJ (National Institutes of Health, Bethesda, […], USA) in independent blots, and normalized with the corresponding loading controls (obtained by staining the membranes with an anti-ERK2 antibody).

[7] = molecular target: mushroom tyrosinase; assay: Mushroom tyrosinase DO activity inhibition (dopachrome formation at 475 nm, L-DOPA substrate); type: biochemical; settings: 10 min pre-incubation, L-DOPA 1 mM, tyrosinase 20 U/mL, pH 6.8
Procedure: The inhibition properties of LCAME were preliminarily investigated on mushroom tyrosinase by spectrophotometric monitoring of dopachrome formation, a method which is routinely used for evaluation of the activity of potential tyrosinase inhibitors. L-DOPA was used as the substrate to test DO activity while L-tyrosine was used to test TH activity. LCAME was incubated in 50 mM phosphate buffer in the presence of mushroom tyrosinase (20 U/mL) at room temperature. After 10 min, L-DOPA or L-tyrosine (1 mM final concentration) were added and the absorbance at 475 nm was measured at different times over 10 min. For comparative purposes the effects of CAME were evaluated as well. Stock methanolic solutions of LCAME or CAME, ranging in concentration from 0.02 to 20 mM concentration were prepared dissolving a proper amount of the compound of interest in methanol. 100 μL of these solutions were added to 2 mL of 50 mM phosphate buffer at pH 6.8 (final concentrations range: 0.001–1 mM), in the presence or in the absence of 20 U/mL mushroom tyrosinase. After 10 min incubation at room temperature, 20 μL of a 100 mM solution of L-DOPA or L-tyrosine in 0.6 M HCl, were added (final concentration: 1 mM). Spectrophotometric analysis was performed by measuring the absorbance at 475 nm for 10 min at 2 min intervals. In control experiments, the reaction was run in the absence of LCAME. When required, the experiment was performed as above but adding L-DOP A soon after the addition of LCAME ([…]). In separate experiments, the assay was run as above with LCAME or CAME at 100 μM, in the presence or absence of L-DOPA, and after 10 min the mixture was analyzed by HPLC.

[8] = molecular target: T1, tyrosinase from HBL human melanoma cells (Homo sapiens, UniProt P14679); assay: DO activity of human tyrosinase in HBL cell extracts (MBTH assay, 490 nm); type: biochemical; settings: HBL cell extracts
T1 construct: endogenous in cells; host or cells: HBL human melanoma cells (detergent-solubilized cell extract)
T1 sequence (P14679 19-529): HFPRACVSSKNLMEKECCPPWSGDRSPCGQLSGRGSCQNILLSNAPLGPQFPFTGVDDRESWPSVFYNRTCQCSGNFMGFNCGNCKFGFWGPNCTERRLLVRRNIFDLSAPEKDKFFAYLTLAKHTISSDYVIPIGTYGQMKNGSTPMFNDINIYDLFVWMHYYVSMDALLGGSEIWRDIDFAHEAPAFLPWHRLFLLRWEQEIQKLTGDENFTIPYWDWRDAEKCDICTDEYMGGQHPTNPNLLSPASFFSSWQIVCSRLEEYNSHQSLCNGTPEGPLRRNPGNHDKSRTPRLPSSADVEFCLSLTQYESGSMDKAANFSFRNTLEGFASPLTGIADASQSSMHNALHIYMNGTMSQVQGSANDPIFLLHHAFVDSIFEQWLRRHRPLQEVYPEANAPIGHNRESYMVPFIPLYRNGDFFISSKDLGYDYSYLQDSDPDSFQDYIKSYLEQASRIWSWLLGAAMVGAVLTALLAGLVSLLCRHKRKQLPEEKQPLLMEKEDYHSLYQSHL
Procedure: In further experiments, the effect of LCAME and LCA was investigated on extracts from HBL human melanoma cells expressing tyrosinase, and the inhibition of DO activity was evaluated. DO activity was determined according to Winder and Harris with some minor modifications: cell extracts were incubated with 3-methyl-2-benzothiazolinone hydrazone (MBTH) and absorbance at 490 nm was measured every 10 min for 1 h.
Cells were solubilized in 1% Igepal, 1% phenylmethylsulfonyl fluoride, 50 mM phosphate buffer (pH 6.8) and centrifuged at 2000 rpm for 5 min.
DO activity determinations were performed according to Winder and Harris with minor modifications. Briefly, cell extracts (usually 50–100 µg protein/assay) were incubated with 5 mM MBTH and 2.5 mM L-DOPA in 50 mM phosphate buffer pH 6.8 in the presence of the indicated concentrations of the compound of choice in a 96-wells plate. DO activity was measured spectrophotometrically in a microplate reader every ten minutes for one hour and was expressed as the slopes calculated with the GraphPad Prism 7 software (Linear Regression, San Diego, CA, USA).
For the analysis of kinetic parameters, the assays were run as above, using different concentrations of L-DOPA (from 0.1 to 2.0 mM) and of the inhibitor (0, 10 and 25 μM) to build the Lineweaver–Burk plot.

[9] = tested on: mushroom tyrosinase; set-up: method as in PMID 31105178; settings: cited from earlier work; remark: listed apart in the source
[10] = molecular target: mushroom tyrosinase; set-up: method as in PMID 31105178; settings: mushroom enzyme; read-out: IC50 (TH Activity); cited from earlier work
[11] = tested on: T2, human tyrosinase; assay: TH activity of human tyrosinase; type: biochemical; settings: compared with DO activity
T2 construct: endogenous in cells

Row | cell morphology (phase contrast) [3] | consumption of the inhibitor ([4]; absence of L-DOPA) | consumption of the inhibitor ([4]; presence of L-DOPA) | IC50 [5] [µM] | IC50 [7] [µM] | IC50 ([8]; DO activity, L-DOPA 2.5 mM, read-out: IC50 (Mean ± SEM)) | inhibitory effect on DO activity ([8]; fixed concentration of 25 μM) | effect on TH activity of human tyrosinase [11] | SMILES | cytotoxicity (MTT) [1] | effect on tyrosinase activity ([2]; same conditions as LCA) | cell viability (MTT) ([1]; 50 μM) | NDP-MSH-mediated induction of tyrosinase expression ([6]; 25 µM, NDP-MSH 10^−7 M, 48 h) | basal tyrosinase expression ([6]; HBL cells, CAME 25 µM or LCAME 25 or 50 µM, Western blot) | substrate of tyrosinase [9] | IC50 [10] [µM] | nature of tyrosinase inhibition (Lineweaver–Burk plots) [2] | IC50 ([2]; mushroom enzyme, read-out: IC50 (DO Activity)) [µM]
1 |  |  |  |  |  |  |  |  | O=C(O)/C=C/c1ccc(O)c(O)c1 [CA, caffeic acid] | not cytotoxic | did not show any effect |  |  |  |  |  |  | 
2 | became rounded | almost complete | extremely low | 79 ± 7 | 155 ± 7 |  |  |  | COC(=O)/C=C/c1ccc(O)c(O)c1 [CAME, caffeic acid methyl ester, reference compound] |  |  | reduced cell viability | similarly induced | No significant changes |  |  |  | 
3 |  |  |  |  |  | 76 µM and 76.2 µM | significant inhibitory effect | much smaller | O=C(O)/C=C/c1ccc(O)c(O)c1SCCC(S)CCCCC(=O)O (stereo not drawn) [LCA, 2-S-lipoylcaffeic acid] | not cytotoxic |  |  |  |  | not to be a substrate of tyrosinase | 2 ± 0.1 | mixed type mechanism | 3.22 ± 0.02

Reference: article PMC6121902, “Conjugation with Dihydrolipoic Acid Imparts Caffeic Acid Ester Potent Inhibitory Effect on Dopa Oxidase Activity of Human Tyrosinase” (International Journal of Molecular Sciences, 2018)
